US20250130239A1, “PROTEIN DEGRADER” (University of Dundee, priority 2021, published 2025)

How the values were obtained:
[1] = target: T1, Brd3 (Homo sapiens, UniProt Q15059); assay: Off-target degradation of Brd3 (western blot) in BromoTag-Brd2 HEK293 cells; type: cell-based
T1 construct: endogenous Brd3 and Brd4; endogenous in cells; host or cells: heterozygous BromoTag-Brd2 HEK293 cells
Description: Dose-response Degradation Assays. All dose-response degradation assays were performed on the genotype verified heterozygous BromoTag-Brd2 HEK293 cell line. Heterozygous BromoTag-Brd2 HEK293 cells were plated at a density of 5×10^5 cells per well of a six healthy plate a day before initiation of the titration experiment. PROTAC compounds were dissolved in DMSO at a concentration of 10 mM, from these stock concentrations, PROTAC compounds were diluted to appropriate concentrations using DMSO in the range of 10 μM-1 nM. The compounds were then added to a 2 mL of DMEM (Invitrogen, Carlsebad, CA, USA) supplemented with 10% (v/v) Fetal bovine serum (FBS) (Thermo Fisher, Waltham, MA, USA) and 1% (v/v) penicillin/streptomycin (pen/strep) (#15140122, Thermo Fisher, Waltham, MA, USA) and added to the cells at initiation of the experiment. Control compounds such as MZ1, cis-MZ1 were similarly dissolved in DMSO to the appropriate concentration. […]
(§1) Western Blotting. […] Total protein quantity was determined using the BCA protein assay (#23225, Pierce, Rockford, Illinois). Protein concentration was determined using the BCA assay (ThermoFisher Scientific, 23225). […] All western blots were analysed for band intensities using Image Lab from Bio-Rad (LI-COR, Biosciences). The data extracted from these blots were then plotted and analysed using Prism (v. 8.2.0, GraphPad).

[2] = test system: untagged Brd2 and endogenous Brd3 and Brd4; assay: Off-target degradation of endogenous BET proteins (western blot) in BromoTag-Brd2 HEK293 cells; type: cell-based, human; settings: 1 nM to 10 μM; 6 h
Description: Dose-response Degradation Assays. All dose-response degradation assays were performed on the genotype verified heterozygous BromoTag-Brd2 HEK293 cell line. Heterozygous BromoTag-Brd2 HEK293 cells were plated at a density of 5×10^5 cells per well of a six healthy plate a day before initiation of the titration experiment. PROTAC compounds were dissolved in DMSO at a concentration of 10 mM, from these stock concentrations, PROTAC compounds were diluted to appropriate concentrations using DMSO in the range of 10 μM-1 nM. The compounds were then added to a 2 mL of DMEM (Invitrogen, Carlsebad, CA, USA) supplemented with 10% (v/v) Fetal bovine serum (FBS) (Thermo Fisher, Waltham, MA, USA) and 1% (v/v) penicillin/streptomycin (pen/strep) (#15140122, Thermo Fisher, Waltham, MA, USA) and added to the cells at initiation of the experiment. Control compounds such as MZ1, cis-MZ1 were similarly dissolved in DMSO to the appropriate concentration. All titration experiment were performed for a total of 6 hours prior to being harvested and were kept at 37° C., 5% CO2, and 95% humidity once treatment was applied until right before harvesting. Cells were washed twice with PBS before being harvested.
as §1
Development of a Knock-in Cell Line with BromoTag fused to endogenous Brd2 using CRISPR. […] To this end, the endogenous BET family protein Brd2 was chosen as a model target, due to the availability of well-established antibody for Brd2 detection, and expression of a single protein isoform as well detected band in the western blot (Filippakopoulos, P.; Knapp, S., Nat Rev Drug Discov. 2014, 13 (5), 337-356). […]

[3] = target: T2, VHL, compound preincubated with Brd4^BD2 L387A (Homo sapiens, UniProt O60885+P40337, L387A); assay: Fluorescence polarization competitive binding assay, ternary complex binding; settings: displacement of HIF-1a peptide probe, read-out: ternary binding affinity Kd
T2 construct: N-terminally Hiss-tagged VHL (54-213); N-terminally His6-tagged Brd4-BD2^L387A (333-460) was expressed in E. coli; His6 (N, cleaved yes); made in house; host or cells: E. coli
Description: (§2) Protein Expression and Purification. […] The complex was further purified by anion exchange followed by gel filtration chromatography.
(§3) Fluorescence Polarization Binding Assay. […] All components were dissolved from stock solutions using 100 mM Bis-Tris propane, 100 mM NaCl, 1 mM DTT, pH 7.0, to yield a final assay volume of 15 μL. DMSO was added as appropriate to ensure a final concentration of 2% v/v. […] Percentage displacement values were obtained by normalization of controls were plotted against Log[Compound]. IC50 values were determined for each titration using nonlinear regression analysis with Prism (v. 9.1.0, GraphPad). […] Cooperativity values (a) for each PROTAC were calculated using the ratio: α=binary Kd (−bromodomain)/ternary Kd (+bromodomain).

[4] = target: T3, VHL (VCB protein) (Homo sapiens, UniProt P40337); assay: Fluorescence polarization competitive binding assay, binary binding; settings: compound alone; displacement of HIF-1a peptide probe; read-out: binary affinity to VHL Kd
T3 construct: N-terminally Hiss-tagged VHL (54-213); His6 (N, cleaved yes); made in house; host or cells: E. coli
Description: as §2, §3

[5] = target: T4, BromoTag-Brd2 (Homo sapiens, UniProt O60885+P40337, L387A); assay: Time-course degradation assay in heterozygous BromoTag-Brd2 HEK293 cells; type: cell-based; settings: 500 nM 47, 1 μM 48; over 36 h
T4 construct: comprising residues 368-440 of human Brd4; Brd2 (endogenous protein, fusion partner in the same polypeptide); eGFP-P2A (upstream marker in the knock-in cassette) (N, cleaved yes); expressed in transfected cells; host or cells: HEK293, heterozygous CRISPR knock-in at the endogenous BRD2 locus
Description: Time-course Degradation Assay. Time-course degradation assays using PROTACs AGB1, AGB2, and AGB3 were performed on the genotype verified heterozygous BromoTag-Brd2 HEK293 cell line. Heterozygous BromoTag-Brd2 HEK293 cells were plated at a density of 5×10^5 cells per well of a 6 healthy plate a day prior to initiation of the Timecourse assay. PROTAC's AGB1 & AGB2 were diluted in DMSO to a concentration of 1 mM prior to being further diluted 1:2000 in 2 mL of DMEM to a concentration of 500 nM per timepoint. PROTAC AGB3 was diluted in DMSO to a concentration of 2 mM prior to being further diluted 1:2000 in 2 mL of DMEM to a concentration of 1 μM per timepoint. Timepoint range was between 0-36 h. Treatment was applied in a staggered fashion to enable all timepoints to be harvested at the same time.
Western Blotting. All cells were harvested on ice with RIPA lysis, and extraction buffer (ThermoFisher Scientific, 89901) supplemented with protease inhibitor cocktail (Merck, 11697498001) and Benzonase® Nuclease (Sigma, E1014) before being store at −20° C. prior to use. Total protein quantity was determined using the BCA protein assay (#23225, Pierce, Rockford, Illinois). Protein concentration was determined using the BCA assay (ThermoFisher Scientific, 23225). Samples were then prepared and loaded onto NuPAGE™ 4-12% Bis-Tris Midi gels (ThermoFisher Scientific, WG1403A), followed by the transfer of the proteins onto nitrocellulose membranes (EMD Millipore). The membranes were blocked for 1 h prior to incubation with the primary antibodies using 5% Milk TBST. Membranes were probed for Brd2 (Abcam, Ab139690, 1:1000), Brd3 (Abcam, Ab50818, 1:4000), Brd4 (Abcam, Ab128874, 1:1000) or our polyclonal Brd4^BD2 L387A antibody. […] All western blots were analysed for band intensities using Image Lab from Bio-Rad (LI-COR, Biosciences). The data extracted from these blots were then plotted and analysed using Prism (v. 8.2.0, GraphPad).

[6] = target: T4, BromoTag-Brd2; assay: Dose-response degradation assay (western blot, 6 h) in heterozygous BromoTag-Brd2 HEK293 cells; type: cell-based; settings: 6 h; for pDC50: 8-point 10 μM-1 nM, mean (±S.E.) of two repeats
Description: Dose-response Degradation Assays. All dose-response degradation assays were performed on the genotype verified heterozygous BromoTag-Brd2 HEK293 cell line. Heterozygous BromoTag-Brd2 HEK293 cells were plated at a density of 5×10^5 cells per well of a six healthy plate a day before initiation of the titration experiment. PROTAC compounds were dissolved in DMSO at a concentration of 10 mM, from these stock concentrations, PROTAC compounds were diluted to appropriate concentrations using DMSO in the range of 10 μM-1 nM. […] Control compounds such as MZ1, cis-MZ1 were similarly dissolved in DMSO to the appropriate concentration. […] Cells were washed twice with PBS before being harvested.
Western Blotting. […] The membranes were blocked for 1 h prior to incubation with the primary antibodies using 5% Milk TBST. […] Following overnight incubation with the primary antibodies at 4° C., the membranes were incubated with secondary antibodies (Anti-rabbit, Abcam AB216773, 1:5000 or anti-mouse, Abcam AB216774, 1:5000) and hFAB™ Rhodamine Anti-Tubulin Antibody (Biorad, 12004165, 1:10000) for one h and then imaged with a Bio-Rad imager (LI-COR Biosciences). All western blots were analysed for band intensities using Image Lab from Bio-Rad (LI-COR, Biosciences). The data extracted from these blots were then plotted and analysed using Prism (v. 8.2.0, GraphPad).

SMILES | off-target degradation of Brd3 ([1]; at 1 μM, 6 h) | off-target degradation of untagged Brd2 or the other endogenous BET proteins [2] | Kd [3] [nM] | Kd [4] [nM] | off-target degradation of Brd3 ([1]; at 100-1,000 nM) | extent of BromoTag-Brd2 degradation in the time course [5] | DC50 ([6]; range over the two antibodies) [nM] | pDC50 ([6]; Ab: Brd4^BD2 L387A, single stereoisomers) | pDC50 ([6]; Ab: BromoTag-Brd2, single stereoisomers) | Dmax ([6]; HEK293, Ab: Brd4^BD2 L387A, single stereoisomers) [%]
CC[C@@H](C(=O)OCCOCCCOCC(=O)N[C@H](C(=O)N1C[C@H](O)C[C@H]1C(=O)N[C@@H](C)c1ccc(-c2scnc2C)cc1)C(C)(C)C)[C@@H]1N=C(c2ccc(Cl)cc2)c2c(sc(C)c2C)-n2c(C)nnc21 (relative stereo) [ET-OARV-771 (25), 2-(3-(2-(((S)-1-((2S,4R)-4-hydroxy-2-(((S)-1-(4-(4-methylthiazol-5-yl)phenyl)ethyl)carbamoyl)pyrrolidin-1-yl)-3,3-dimethyl-1-oxobutan-2-yl)amino)-2-oxoethoxy)propoxy)ethyl (R*)-2-((S*)-4-(4-chlorophenyl)-2,3,9-trimethyl-6H-thieno[3,2-f][1,2,4]triazolo[4,3-a][1,4]diazepin-6-yl)butanoate] | minor off-target degradation | no observable off-target degradation |  |  |  |  |  |  |  | 
CC[C@@H](C(=O)OCCOCCCOCC(=O)N[C@H](C(=O)N1C[C@H](O)C[C@H]1C(=O)N[C@@H](C)c1ccc(-c2scnc2C)cc1)C(C)(C)C)[C@@H]1N=C(c2ccc(Cl)cc2)c2c(sc(C)c2C)-n2c(C)nnc21 (single isomer, unassigned) [AGB2 (47)] |  |  | 12 | 45 | minor off-target degradation | near complete target degradation |  |  |  | 
CC[C@@H](C(=O)NCCOCCOCCOCC(=O)N[C@H](C(=O)N1C[C@H](O)C[C@H]1C(=O)NCc1ccc(-c2scnc2C)cc1)C(C)(C)C)[C@@H]1N=C(c2ccc(Cl)cc2)c2c(sc(C)c2C)-n2c(C)nnc21 (single isomer, unassigned) [AGB3 (48)] |  |  | 9 | 102 |  | ~80% | 210 to 290 | 6.5 ± 0.3 | 6.7 ± 0.1 | 92
